Test results as given in ChEMBL document CHEMBL1125530, “1,4-Dihydropyridines as antagonists of platelet activating factor. 1. Synthesis and structure-activity relationships of 2-(4-heterocyclyl)phenyl derivatives” (J Med Chem, 1992).

target: Platelet-activating factor receptor (Mus musculus) (UniProt Q62035); assay: Ability to protect mice from lethal effects of an injection of PAF in vivo.; type: functional, organism-based; conditions: Mus sp.
Sequence (Q62035 whole entry): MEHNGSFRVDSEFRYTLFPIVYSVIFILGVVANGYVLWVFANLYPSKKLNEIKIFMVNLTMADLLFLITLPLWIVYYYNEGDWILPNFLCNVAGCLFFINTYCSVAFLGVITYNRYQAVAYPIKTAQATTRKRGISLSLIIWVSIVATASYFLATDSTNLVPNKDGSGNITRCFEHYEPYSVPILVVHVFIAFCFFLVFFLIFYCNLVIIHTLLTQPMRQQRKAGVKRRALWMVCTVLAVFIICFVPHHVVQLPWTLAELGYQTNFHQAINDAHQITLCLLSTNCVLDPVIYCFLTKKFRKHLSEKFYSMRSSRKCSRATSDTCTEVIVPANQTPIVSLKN

In order of falling ED50:
1. CCOC(=O)C1=C(c2ccc(-c3c(C)nc4ccccn34)cc2)NC(C)=C(C(=O)Nc2ccccn2)C1c1ccccc1Cl (stereo not given)  92 mg/kg
2. CCOC(=O)C1=C(c2ccc(-n3c(C)nnc3C)cc2)NC(C)=C(C(=O)Nc2ccccn2)C1c1ccccc1Cl (stereo not given)  34 mg/kg
3. CCOC(=O)C1=C(c2ccc(-n3c(C(F)(F)F)nc4cnccc43)cc2)NC(C)=C(C(=O)Nc2ccccn2)C1c1ccccc1Cl (stereo not given)  25 mg/kg
4. CCOC(=O)C1=C(c2ccc(-n3c(C)nc4cccnc43)cc2)NC(C)=C(C(=O)Nc2ccccn2)C1c1ccccc1Cl (stereo not given)  23 mg/kg
5. CCOC(=O)C1=C(c2ccc(-n3ccnc3C)cc2)NC(C)=C(C(=O)Nc2ccccn2)C1c1ccccc1Cl (stereo not given)  22 mg/kg
6. CCOC(=O)C1=C(c2ccc(-n3c(C)nc4cnccc43)cc2)NC(C)=C(C(=O)Nc2ccccn2)C1c1cccnc1 (stereo not given)  16 mg/kg
7. CCOC(=O)C1=C(c2ccc(-n3c(C)nc4ccncc43)cc2)NC(C)=C(C(=O)Nc2ccccn2)C1c1ccccc1Cl (stereo not given)  16 mg/kg
8. CCOC(=O)C1=C(c2ccc(-n3c(C)nc4cnccc43)cc2)NC(C)=C(C(=O)Nc2ccccn2)C1c1cccnc1Cl (stereo not given)  13 mg/kg
9. CCOC(=O)C1=C(c2ccc(-n3c(C)nc(C)c3C)cc2)NC(C)=C(C(=O)Nc2ccccn2)C1c1ccccc1Cl (stereo not given)  10.5 mg/kg
10. CCOC(=O)C1=C(c2ccc(-n3c(CC)nc4cnccc43)cc2)NC(C)=C(C(=O)Nc2ccccn2)C1c1ccccc1Cl (stereo not given)  10.5 mg/kg
11. CCOC(=O)C1=C(c2ccc(-c3sc(C)nc3C)cc2)NC(C)=C(C(=O)Nc2ccccn2)C1c1ccccc1Cl (stereo not given)  7.4 mg/kg
12. CCOC(=O)C1=C(c2ccc(-c3c(C)nc4sccn34)cc2)NC(C)=C(C(=O)Nc2ccccn2)C1c1ccccc1Cl (stereo not given)  5.4 mg/kg
13. CCOC(=O)C1=C(c2ccc(-n3c(C)nc4cnccc43)cc2)N=C(C)/C(=C(/O)OC2CCCCC2)C1c1ccccc1Cl (stereo not given)  4.7 mg/kg
14. CCOC(=O)C1=C(c2ccc(-n3c(C)nc4cnccc43)cc2)NC(C)=C(C(=O)O)C1c1ccccc1Cl (stereo not given)  4.7 mg/kg
15. CCOC(=O)C1=C(c2ccc(-n3c(C)nc4cnccc43)cc2)NC(C)=C(C(=O)Nc2ccccn2)C1c1ccccn1 (stereo not given)  4.1 mg/kg
16. CCOC(=O)C1=C(c2ccc(-c3cccnc3C)cc2)NC(C)=C(C(=O)Nc2ccccn2)C1c1ccccc1Cl (stereo not given)  3.7 mg/kg
17. CCOC(=O)C1=C(c2ccc(-n3cc(C)nc3C)cc2)NC(C)=C(C(=O)Nc2ccccn2)C1c1ccccc1Cl (stereo not given)  3 mg/kg
18. CCOC(=O)C1=C(c2ccc(-n3c(C)nc4cnccc43)cc2)NC(C)=C(C(=O)NC(C)(C)C)C1c1ccccc1Cl (stereo not given)  2.1 mg/kg
19. Cc1nnc2n1-c1sc(CCC(=O)N3CCOCC3)cc1C(c1ccccc1Cl)=NC2  2.03 mg/kg
20. CCOC(=O)C1=C(c2ccc(-n3c(C)nc4cnccc43)cc2)N=C(C)/C(=C(/O)OCc2ccccc2)C1c1ccccc1Cl (stereo not given)  2 mg/kg
21. CCOC(=O)C1=C(c2ccc(-n3c(C)nc4cnccc43)cc2)N=C(C)/C(=C(/O)OC(C)(C)C)C1c1ccccc1Cl (stereo not given)  2 mg/kg
22. CCOC(=O)C1=C(c2ccc(-n3c(C)nc4cnccc43)cc2)N=C(C)/C(=C(/O)OC)C1c1ccccc1Cl (stereo not given)  1.5 mg/kg
23. CCOC(=O)C1=C(c2ccc(-n3c(C)nc4cnccc43)cc2)NC(C)=C(C(=O)Nc2ccccn2)C1c1ccc(C#N)cc1 (stereo not given)  1.2 mg/kg
24. CCOC(=O)C1=C(c2ccc(-n3c(C)nc4cnccc43)cc2)NC(C)=C(C(N)=O)C1c1ccccc1Cl (stereo not given)  1 mg/kg
25. CCOC(=O)C1=C(c2ccc(-n3c(C)nc4cnccc43)cc2)NC(C)=C(C(=O)Nc2ccccn2)C1c1csc2ccccc12 (stereo not given)  0.6 mg/kg
26. CCOC(=O)C1=C(c2ccc(-n3c(C)nc4cnccc43)cc2)NC(C)=C(C(=O)Nc2ccccn2)C1c1cccc2c1OCO2 (stereo not given)  0.5 mg/kg
27. CCOC(=O)C1=C(c2ccc(-n3c(C)nc4c(C)nc(C)cc43)cc2)NC(C)=C(C(=O)Nc2ccccn2)C1c1ccccc1Cl (stereo not given)  0.3 mg/kg
28. CCOC(=O)C1=C(c2ccc(-n3c(C)nc4cnccc43)cc2)NC(C)=C(C(=O)Nc2ccccn2)C1c1ccccc1Cl (stereo not given)  0.26 mg/kg
29. CCOC(=O)C1=C(c2ccc(-n3c(C)nc4cnccc43)cc2)NC(C)=C(C(=O)Nc2ccccn2)C1c1ccccc1OC(F)(F)F (stereo not given)  0.2 mg/kg
30. CCOC(=O)C1=C(c2ccc(-n3c(C)nc4cnccc43)cc2)N=C(C)/C(=C(/O)OCCOC)C1c1ccccc1Cl (stereo not given)  0.16 mg/kg
